Assay results published in paper PMC9574855 (Journal of Medicinal Chemistry, 2022).

Assays:
[1] = test system: His6-SARS-CoV-2 spike protein uptake by HEK293T-ACE2 cells; assay: Spike uptake assay in HEK293T-ACE2 cells; type: cell-based, human; conditions: 1 μM
[2] = test system: lentivirus pseudotyped with the SARS-CoV-2 spike glycoprotein; type: cell-based; conditions: Calu-3 cells, 1 μM
[3] = test system: His6-SARS-CoV-2 spike protein uptake by Caco-2 cells; assay: Spike uptake assay in Caco-2 cells; type: cell-based; conditions: 1 μM
bald GFP lentivirus = type: cell-based; conditions: Calu-3 cells, 1 μM
403 WT human kinases = conditions: 1 μM, published data, apilimod; cited from earlier work
SH-SY5Y cells = assay: Lysosomal staining; type: cell-based, human; conditions: 5 μM, 24 h
[4] = test system: His6-SARS-CoV-2 spike protein uptake by Calu-3 cells; assay: Spike uptake assay in Calu-3 cells; type: cell-based; conditions: 1 μM
ITPK1 = conditions: 300 nM, KiNativ, Jurkat cell lysate; cited from earlier work
[5] = test system: 24 human lipid kinases and 83 human protein kinases; conditions: 300 nM, KiNativ; cited from earlier work
LOK = conditions: 300 nM, KiNativ, Jurkat cell lysate; cited from earlier work

Row | Structure (SMILES) | His6-SARS-CoV-2 spike protein uptake [1] | entry of lentivirus pseudotyped with SARS-CoV-2 spike glycoprotein [2] | His6-SARS-CoV-2 spike protein uptake [3] | entry of bald lentivirus (bald GFP lentivirus) | # scanMAX kinases with PoC < 10 (403 WT human kinases) | vacuoles in LysoTracker-stained cells (SH-SY5Y cells) | His6-SARS-CoV-2 spike protein uptake [4] | inhibition of ITPK1 (ITPK1) [%] | Gini coefficient [5] | inhibition of LOK (LOK) [%]
1 | Cc1cccc(/C=N/Nc2cc(N3CCOCC3)nc(OCCc3ccccn3)n2)c1 [Apilimod, 4-(6-(2-(3-Methylbenzylidene)hydrazinyl)-2-(2-(pyridin-2-yl)ethoxy)pyrimidin-4-yl)morpholine, reference compound] | significantly reduced spike protein uptake | inhibition of pseudoviral entry | efficiently reduced spike protein uptake | entry of bald lentivirus was not impacted | 1 | vacuoles are present | efficiently reduced spike protein uptake |  |  | 
2 | Cc1cccc(/C=N/Nc2cc(N3CCOCC3)n3nc(-c4ccncc4)cc3n2)c1 [APY0201, 2-[7-(4-morpholinyl)-2-(4-pyridinyl)pyrazolo[1,5-a]pyrimidin-5-yl]hydrazone, 3-methyl-benzaldehyde] |  |  |  |  |  |  |  | > 50 | 0.753 | > 50
